Numbers after ± are expanded uncertainties.
Columns and labels:
[1] = mn = molality of the nth substance listed, in mol/kg; conditions: 101 kPa, Liquid, Capillary tube (Ostwald / Ubbelohde) method
[2] = 101 kPa, Liquid, Capillary tube (Ostwald / Ubbelohde) method
[3] = xn = mol fraction of the nth substance listed; conditions: 101 kPa, Liquid, Capillary tube (Ostwald / Ubbelohde) method

SMILES | viscosity ([1]; 298.15 K, m1 = 0.0081) [mPa·s] | viscosity ([1]; 298.15 K, m1 = 0.0099) [mPa·s] | viscosity ([1]; 298.15 K, m1 = 0.0201) [mPa·s] | viscosity ([1]; 298.15 K, m1 = 0.0402) [mPa·s] | viscosity ([1]; 298.15 K, m1 = 0.0599) [mPa·s] | viscosity ([1]; 298.15 K, m1 = 0.0802) [mPa·s] | viscosity ([1]; 298.15 K, m1 = 0.1) [mPa·s] | viscosity ([1]; 308.15 K, m1 = 0.0081) [mPa·s] | viscosity ([1]; 308.15 K, m1 = 0.0099) [mPa·s] | viscosity ([1]; 308.15 K, m1 = 0.0201) [mPa·s] | viscosity ([1]; 308.15 K, m1 = 0.0402) [mPa·s] | viscosity ([1]; 308.15 K, m1 = 0.0599) [mPa·s] | viscosity ([1]; 308.15 K, m1 = 0.0802) [mPa·s] | viscosity ([1]; 308.15 K, m1 = 0.1) [mPa·s] | also measured
O=S(=O)([O-])[O-].[K+].[K+] [potassium sulfate] + O | 0.895 ± 0.012 | 0.896 ± 0.012 | 0.899 ± 0.012 | 0.905 ± 0.012 | 0.909 ± 0.012 | 0.914 ± 0.012 | 0.918 ± 0.012 | 0.723 ± 0.009 | 0.724 ± 0.009 | 0.727 ± 0.009 | 0.732 ± 0.01 | 0.737 ± 0.01 | 0.742 ± 0.01 | 0.746 ± 0.01 | –
O=S(=O)([O-])[O-].O=S(=O)([O-])[O-].O=S(=O)([O-])[O-].[Al+3].[Al+3] [aluminum sulfate] + O | 0.904 ± 0.012 | 0.908 ± 0.012 | 0.927 ± 0.012 | 0.967 ± 0.012 | 1.008 ± 0.013 | 1.05 ± 0.013 | 1.093 ± 0.014 | 0.729 ± 0.01 | 0.732 ± 0.01 | 0.747 ± 0.01 | 0.777 ± 0.01 | 0.807 ± 0.01 | 0.839 ± 0.011 | 0.87 ± 0.011 | –
O [water] | – | – | – | – | – | – | – | – | – | – | – | – | – | – | viscosity ([2]; 298.15 K): 0.89 ± 0.011 mPa·s; viscosity ([2]; 308.15 K): 0.719 ± 0.009 mPa·s
CN(C)C=O [dimethylformamide] + O | – | – | – | – | – | – | – | – | – | – | – | – | – | – | viscosity ([3]; 298.15 K, x1 = 0.05): 1.002 ± 0.013 mPa·s; viscosity ([3]; 298.15 K, x1 = 0.1): 1.126 ± 0.014 mPa·s; viscosity ([3]; 298.15 K, x1 = 0.15): 1.258 ± 0.016 mPa·s; viscosity ([3]; 298.15 K, x1 = 0.2): 1.391 ± 0.018 mPa·s; viscosity ([3]; 308.15 K, x1 = 0.05): 0.797 ± 0.01 mPa·s; viscosity ([3]; 308.15 K, x1 = 0.1): 0.891 ± 0.011 mPa·s; viscosity ([3]; 308.15 K, x1 = 0.15): 0.984 ± 0.013 mPa·s; viscosity ([3]; 308.15 K, x1 = 0.2): 1.08 ± 0.014 mPa·s
N.N.O=S(=O)(O)O [ammonium sulfate] + O | 0.897 ± 0.012 | 0.898 ± 0.012 | 0.902 ± 0.012 | 0.908 ± 0.012 | 0.913 ± 0.012 | 0.918 ± 0.012 | 0.922 ± 0.012 | 0.725 ± 0.009 | 0.726 ± 0.009 | 0.729 ± 0.01 | 0.735 ± 0.01 | 0.74 ± 0.01 | 0.744 ± 0.01 | 0.748 ± 0.01 | –

From the NIST ThermoML archive (doi:10.1021/je800330d)
